Experiments:
tau [1] = assay: Tau level reduction in HeLa cells stably transfected with tau treated with myricanol derivatives; type: cell-based; details: for reduction of levels of tau proteins: summary statement
Procedure: To assess the effects of the aqueous bayberry extract on overexpressed and endogenous tau levels, HeLa cells stably transfected with tau were treated with the myricanol derivatives.

tau [2] = assay: Tau-reducing-guided fractionation study of Myrica cerifera (tau destabilizer activity); type: cell-based; details: read-out: IC50 as tau destabilizer agent
Procedure: The bayberry root-bark powder (5×1 kg) was extracted with 5×2 L of toluene under agitation in a (5×) flask protected from light (3×24 h). The filtrate was concentrated and gave 58 g of extract. The toluene extract was purified using silica gel MPLC, eluting with a gradient of 0 to 40% ethyl acetate/hexanes to yield 27 g of (+)-aR,11S-myricanol [α]D^21=48.2 (c=1.1, Chloroform).

[3] = HeLa cells stably transfected with tau
[4] = Table 1, tau-reducing activity, result in words

Q: How did the Results (tau [1]; [3]) turn out when `COc1c2cc(c(O)c1OC)CCC/C=C/CCc1ccc(O)c-2c1` [Compound 18, Myricacene A (trans)] was run?
A: active

Q: What about the Results (tau [1]; [4]) of the same molecule?
A: active

Q: How did the Results (tau [1]; [3]) turn out when `COc1c2cc(c(O)c1OC)CCCC/C=C\Cc1ccc(O)c-2c1` [Compound 22, Myricacene B (cis)] was run?
A: active

Q: And the Results (tau [1]; [4])?
A: active

Q: What about the “tau-reducing activity, dose-dependent bioassay” value (tau [1]; concentration of 20 μg/mL) of the same molecule?
A: potent tau-reducing compound

Q: What about the “reduction of levels of tau proteins” value (tau [1]) of the same molecule?
A: potently reduce levels of tau proteins

Q: `COc1cc2c(c(O)c1OC)CCCC1CCCc3ccc(O)c-2c31` (stereo not drawn) [Compound 23] was tested. Which Results (tau [1]; [3]) did it give?
A: very active

Q: And the Results (tau [1]; [4])?
A: very active

Q: And the “reduction of levels of tau proteins” value (tau [1])?
A: potently reduce levels of tau proteins

Q: And the “reduction of protein tau levels, time-dependent bioassay” value (tau [1]; treatment of HeLa cells for 24 hours)?
A: potently reduces protein tau levels

Q: Which results are given for `O=C(/C=C/c1ccc(O)cc1)CC(=O)/C=C/c1ccc(O)cc1` [Compound 10, Bisdemethoxycurcumin]?
A: Results (tau [1]; [3]): active; Results (tau [1]; [4]): active

Q: With `COc1c2cc(c(O)c1OC)CCCCC1CCc3ccc(O)c-2c31` (stereo not drawn) [Compound 24] as the molecule, how does the Results (tau [1]; [3]) read?
A: active

Q: What about the Results (tau [1]; [4]) of the same molecule?
A: active

Q: For `COc1c2cc(c(O)c1OC)CCCC[C@H](O)CCc1ccc(O)c-2c1` [Compound 1, Myricanol], which Results (tau [1]; [4]) is on record?
A: moderate activity

Q: And the IC50 (tau [2])?
A: 35 µM

Q: With `CCCCCCCCC[C@H](O)CC(=O)CCc1ccc(O)c(OC)c1` [Compound 11, [10]-Gingerol] as the molecule, how does the Results (tau [1]; [3]) read?
A: active

Q: What about the Results (tau [1]; [4]) of the same molecule?
A: Active

Q: Which Results (tau [1]; [3]) does the source give for `COc1c2cc(c(O)c1OC)CCC/C=C\CCc1ccc(O)c-2c1` [Compound 21, Myricacene A (cis)] here?
A: moderately active

Q: And the Results (tau [1]; [4])?
A: moderately active

Q: What does the source list for `COc1c2cc(c(O)c1OC)CCCC/C=C/Cc1ccc(O)c-2c1` [Compound 19, Myricacene B (trans)]?
A: Results (tau [1]; [3]): active; Results (tau [1]; [4]): active

Q: For Demethoxycurcumin [Compound 9], which Results (tau [1]; [3]) is on record?
A: active

Q: What about the Results (tau [1]; [4]) of the same molecule?
A: active
